Experimental data: ChEMBL document CHEMBL1143200, “Design and physicochemical properties of new fluorescent ligands of protein kinase C isozymes focused on CH/pi interaction” (Bioorg Med Chem, 2008)
pKi: −log10 of the molar value.

Experiments:
[1] = molecular target: T1, Protein kinase C beta type (Homo sapiens, UniProt P05771); assay: Displacement of [3H]PDBu from PKCbeta C1A domain
[2] = molecular target: T2, Protein kinase C gamma type (Homo sapiens, UniProt P05129); assay: Displacement of [3H]PDBu from PKCgamma C1A domain
[3] = molecular target: T1, Protein kinase C beta type; assay: Displacement of [3H]PDBu from PKCbeta C1B domain
[4] = molecular target: T3, Protein kinase C alpha type (Homo sapiens, UniProt P17252); assay: Displacement of [3H]PDBu from PKCalpha C1A domain
[5] = molecular target: T3, Protein kinase C alpha type; assay: Displacement of [3H]PDBu from PKCalpha C1B domain
[6] = molecular target: T4, Protein kinase C epsilon type (Homo sapiens, UniProt Q02156); assay: Displacement of [3H]PDBu from PKCepsilon C1B domain
T4 sequence (Q02156 whole entry): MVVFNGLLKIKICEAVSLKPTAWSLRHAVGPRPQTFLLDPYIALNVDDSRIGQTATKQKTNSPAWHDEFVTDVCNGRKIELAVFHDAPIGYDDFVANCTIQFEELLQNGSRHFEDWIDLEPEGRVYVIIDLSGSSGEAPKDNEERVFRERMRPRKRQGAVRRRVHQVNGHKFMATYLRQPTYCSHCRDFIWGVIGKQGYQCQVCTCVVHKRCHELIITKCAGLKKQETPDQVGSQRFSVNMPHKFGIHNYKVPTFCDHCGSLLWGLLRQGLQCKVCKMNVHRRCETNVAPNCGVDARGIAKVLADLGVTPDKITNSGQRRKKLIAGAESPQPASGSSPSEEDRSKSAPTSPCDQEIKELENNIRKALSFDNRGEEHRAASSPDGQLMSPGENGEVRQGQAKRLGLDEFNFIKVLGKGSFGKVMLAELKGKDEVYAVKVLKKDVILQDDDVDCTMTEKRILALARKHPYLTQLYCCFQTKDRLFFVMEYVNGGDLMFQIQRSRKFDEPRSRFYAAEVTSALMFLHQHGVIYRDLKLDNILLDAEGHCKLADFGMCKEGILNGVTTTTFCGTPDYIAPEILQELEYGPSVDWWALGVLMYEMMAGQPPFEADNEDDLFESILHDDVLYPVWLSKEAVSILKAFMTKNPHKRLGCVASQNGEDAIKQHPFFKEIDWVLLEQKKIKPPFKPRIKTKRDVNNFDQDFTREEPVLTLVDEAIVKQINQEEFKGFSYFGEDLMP

[7] = molecular target: Protein kinase C delta type (Homo sapiens, UniProt Q05655); assay: Displacement of [3H]PDBu from PKCdelta C1B domain
Sequence of Protein kinase C delta type (Q05655 whole entry, the tested form may be a part): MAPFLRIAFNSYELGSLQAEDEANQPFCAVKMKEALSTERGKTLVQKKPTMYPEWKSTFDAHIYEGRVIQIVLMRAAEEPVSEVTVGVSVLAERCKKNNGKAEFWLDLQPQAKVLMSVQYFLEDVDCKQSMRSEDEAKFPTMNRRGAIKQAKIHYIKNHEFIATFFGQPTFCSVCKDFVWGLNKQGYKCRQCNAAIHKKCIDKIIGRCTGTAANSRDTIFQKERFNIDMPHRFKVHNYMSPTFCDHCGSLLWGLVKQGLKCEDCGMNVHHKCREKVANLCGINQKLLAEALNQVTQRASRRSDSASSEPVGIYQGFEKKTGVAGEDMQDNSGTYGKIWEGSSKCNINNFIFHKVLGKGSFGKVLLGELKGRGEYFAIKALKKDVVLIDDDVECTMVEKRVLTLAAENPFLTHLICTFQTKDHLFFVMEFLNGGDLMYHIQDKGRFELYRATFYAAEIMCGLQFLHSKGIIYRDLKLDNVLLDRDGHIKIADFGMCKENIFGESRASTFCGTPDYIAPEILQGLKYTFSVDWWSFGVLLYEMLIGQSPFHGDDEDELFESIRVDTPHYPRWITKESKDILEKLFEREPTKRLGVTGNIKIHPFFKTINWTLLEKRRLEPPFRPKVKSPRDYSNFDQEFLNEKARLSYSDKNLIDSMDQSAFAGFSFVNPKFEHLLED

[8] = molecular target: Protein kinase C theta type (Homo sapiens, UniProt Q04759); assay: Displacement of [3H]PDBu from PKCtheta C1B domain
Sequence of Protein kinase C theta type (Q04759 whole entry, the tested form may be a part): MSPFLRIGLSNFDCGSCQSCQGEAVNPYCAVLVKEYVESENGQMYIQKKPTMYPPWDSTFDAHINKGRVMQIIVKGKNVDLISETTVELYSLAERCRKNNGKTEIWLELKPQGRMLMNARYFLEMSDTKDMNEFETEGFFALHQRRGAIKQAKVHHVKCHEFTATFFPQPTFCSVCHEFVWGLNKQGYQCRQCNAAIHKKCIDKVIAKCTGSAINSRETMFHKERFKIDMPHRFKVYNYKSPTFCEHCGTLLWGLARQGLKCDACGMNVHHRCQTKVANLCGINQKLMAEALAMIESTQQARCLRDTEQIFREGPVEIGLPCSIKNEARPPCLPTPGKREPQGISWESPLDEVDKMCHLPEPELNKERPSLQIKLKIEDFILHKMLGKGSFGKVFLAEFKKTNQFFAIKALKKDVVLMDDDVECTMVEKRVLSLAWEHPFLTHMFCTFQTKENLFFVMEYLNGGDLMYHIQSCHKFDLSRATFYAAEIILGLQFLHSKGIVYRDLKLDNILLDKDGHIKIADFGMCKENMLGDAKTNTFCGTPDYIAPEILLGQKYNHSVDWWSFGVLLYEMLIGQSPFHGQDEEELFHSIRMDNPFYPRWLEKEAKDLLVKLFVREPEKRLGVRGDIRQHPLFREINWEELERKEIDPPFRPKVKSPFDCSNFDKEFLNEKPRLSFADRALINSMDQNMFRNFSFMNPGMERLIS

[9] = molecular target: T2, Protein kinase C gamma type; assay: Displacement of [3H]PDBu from PKCgamma C1B domain
[10] = molecular target: Protein kinase C eta type (Homo sapiens, UniProt P24723); assay: Displacement of [3H]PDBu from PKCeta C1B domain
Sequence of Protein kinase C eta type (P24723 whole entry, the tested form may be a part): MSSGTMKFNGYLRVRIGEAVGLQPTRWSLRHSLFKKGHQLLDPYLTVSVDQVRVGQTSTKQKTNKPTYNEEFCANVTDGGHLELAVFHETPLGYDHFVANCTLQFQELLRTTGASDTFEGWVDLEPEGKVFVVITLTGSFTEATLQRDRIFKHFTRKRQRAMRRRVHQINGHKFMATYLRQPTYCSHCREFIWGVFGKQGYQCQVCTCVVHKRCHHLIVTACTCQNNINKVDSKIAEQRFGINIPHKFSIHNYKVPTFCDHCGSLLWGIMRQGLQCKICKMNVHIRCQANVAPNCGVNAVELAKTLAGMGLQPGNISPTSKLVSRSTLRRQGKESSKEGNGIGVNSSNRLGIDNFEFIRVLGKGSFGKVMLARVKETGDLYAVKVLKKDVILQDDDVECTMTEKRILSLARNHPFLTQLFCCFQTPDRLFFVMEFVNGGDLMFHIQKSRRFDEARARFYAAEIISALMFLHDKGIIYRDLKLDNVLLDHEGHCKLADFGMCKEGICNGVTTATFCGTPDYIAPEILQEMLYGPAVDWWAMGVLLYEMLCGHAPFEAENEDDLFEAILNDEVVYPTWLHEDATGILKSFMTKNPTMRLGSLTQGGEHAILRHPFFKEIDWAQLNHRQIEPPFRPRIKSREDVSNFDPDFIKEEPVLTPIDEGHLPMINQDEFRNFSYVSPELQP

T1 sequence (P05771 whole entry, the tested form may be a part): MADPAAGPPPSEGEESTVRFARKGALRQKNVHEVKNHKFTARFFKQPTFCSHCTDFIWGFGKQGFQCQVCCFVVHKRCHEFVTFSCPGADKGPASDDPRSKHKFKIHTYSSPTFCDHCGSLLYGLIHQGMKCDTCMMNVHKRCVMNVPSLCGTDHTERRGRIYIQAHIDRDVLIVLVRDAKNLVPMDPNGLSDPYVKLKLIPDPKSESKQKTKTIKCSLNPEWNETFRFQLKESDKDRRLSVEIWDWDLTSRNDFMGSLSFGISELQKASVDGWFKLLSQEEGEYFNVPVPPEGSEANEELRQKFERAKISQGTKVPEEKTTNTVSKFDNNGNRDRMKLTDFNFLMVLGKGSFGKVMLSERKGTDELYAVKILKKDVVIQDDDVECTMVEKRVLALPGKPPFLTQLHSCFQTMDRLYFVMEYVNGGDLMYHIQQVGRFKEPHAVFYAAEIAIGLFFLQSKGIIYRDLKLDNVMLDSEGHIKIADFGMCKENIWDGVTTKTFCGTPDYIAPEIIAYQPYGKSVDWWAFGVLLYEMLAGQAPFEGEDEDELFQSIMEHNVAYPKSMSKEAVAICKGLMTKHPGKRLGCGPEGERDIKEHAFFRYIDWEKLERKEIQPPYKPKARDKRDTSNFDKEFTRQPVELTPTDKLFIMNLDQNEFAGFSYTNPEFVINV

| Compound | pKi [1] | pKi [2] | pKi [3] | pKi [4] | pKi [5] | pKi [6] | pKi [7] | pKi [8] | pKi [9] | pKi [10] |
| --- | --- | --- | --- | --- | --- | --- | --- | --- | --- | --- |
| Cc1nn2cc3c4c(ccc1c42)N(C)[C@@H](C(C)C)C(=O)N[C@H](CO)C3 | 5.96 | 5.82 | < 5.00 | 5.96 | 5.58 | 6.39 | 6.89 | 6.83 | 5.59 | 6.65 |
| CC(C)[C@H]1C(=O)N[C@H](CO)Cc2c[nH]c3cccc(c23)N1C [INDOLACTUM] | – | – | 5.40 | – | 6.85 | – | – | – | – | – |
| CC(C)[C@H]1C(=O)N[C@H](CO)Cc2cn3nc(C(F)(F)F)c4ccc(c2c43)N1C | 6.90 | 6.63 | 5.03 | 6.95 | 6.14 | 7.10 | 7.28 | 7.29 | 5.96 | 7.53 |
| CC(C)[C@H]1C(=O)N[C@H](CO)Cc2cn3ncc4ccc(c2c43)N1C | 7.06 | 7.21 | 5.22 | 7.07 | 6.45 | 7.65 | 7.75 | 7.73 | 6.65 | 8.00 |
